The results in this text go back to the OligoGym collection.

Bases are written 5' to 3'; sugars and linkages follow in the same order, as letters with counts (s phosphorothioate, o phosphodiester; PS: all linkages phosphorothioate). C may stand for cytosine or 5-methylcytosine; the collection does not tell. l = locked nucleic acid (LNA); d = 2'-deoxy (DNA)

The target of this series is HIF1A. In words: HeLa, 100 nM transfected, 24 h, mean of 3. The following applies: ASO.

With “GCAAGCATCCTGT (sugars l2 d8 l1 d1 l1, PS)”, the caspase activation (% of PBS control) was 281.

“GTTACTGCCTTCTTAC (sugars ldlddddddddlddll, PS)” yielded a caspase activation (% of PBS control) of 130.

For “GTTACTGCCTTCTTAC (sugars l5 d6 l2 d1 l2, PS)”, the caspase activation (% of PBS control) amounted to 488.

“GTTACTGCCTTCTTAC (sugars ldldlddddddddldl, PS)”: the caspase activation (% of PBS control) turned out to be 201.

“GCAAGCATCCTGT (sugars l1 d2 l1 d6 l3, PS)”: the caspase activation (% of PBS control) is 154.

“TACTGCCTTCTTA (sugars l1 d2 l1 d6 l3, PS)”: the caspase activation (% of PBS control) is 246.

With “CAAGCATCCTGTA (sugars l1 d2 l1 d8 l1, PS)”, the caspase activation (% of PBS control) stood at 101.

Regarding TGGCAAGCATCCTGTA (sugars l3 d12 l1, PS), the caspase activation (% of PBS control) came out at 237.

In the case of “TGGCAAGCATCCTGTA (sugars l1 d1 l3 d7 l4, PS)”, the caspase activation (% of PBS control) was 395.

Take “TGGCAAGCATCCT (sugars ldllddddddldl, PS)”: the caspase activation (% of PBS control) amounted to 377.

GCAAGCATCCTGT (sugars l3 d7 l3, PS) showed a caspase activation (% of PBS control) of 600.

Sequence TACTGCCTTCTTA (sugars l2 d10 l1, PS) returned a caspase activation (% of PBS control) of 152.

As for “TGGCAAGCATCCTGTA (sugars lddddddddddldldl, PS)”, the caspase activation (% of PBS control) came out at 228.

The sequence “TGGCAAGCATCCT (sugars l1 d9 l1 d1 l1, PS)” had a caspase activation (% of PBS control) of 242.

With TGGCAAGCATCCTGTA (sugars l4 d10 l2, PS), the caspase activation (% of PBS control) is 396.

“TGGCAAGCATCCTGTA (sugars l2 d1 l2 d10 l1, PS)”: the caspase activation (% of PBS control) is 401.

Take “GTTACTGCCTTCTTAC (sugars lddllddddddldlll, PS)”: the caspase activation (% of PBS control) stood at 237.

As to “TGGCAAGCATCCTGTA (sugars ldlldddddddldddl, PS)”, the caspase activation (% of PBS control) was 229.

The sequence “GTTACTGCCTTCTTAC (sugars l4 d8 l2 d1 l1, PS)” displayed a caspase activation (% of PBS control) of 284.

For the sequence “GTTACTGCCTTCTTAC (sugars ldldlddddddldldl, PS)”, the caspase activation (% of PBS control) stood at 251.

Turning to “GCAAGCATCCTGT (sugars l1 d1 l1 d8 l2, PS)”, the caspase activation (% of PBS control) came to 188.

For the sequence “TGGCAAGCATCCT (sugars l2 d8 l1 d1 l1, PS)”, the caspase activation (% of PBS control) came to 407.

Regarding GCAAGCATCCTGT (sugars l2 d8 l3, PS), the caspase activation (% of PBS control) was determined as 401.

“TGGCAAGCATCCTGTA (sugars ldldlddddddlddll, PS)” yielded a caspase activation (% of PBS control) of 178.

“TGGCAAGCATCCTGTA (sugars l2 d10 l1 d2 l1, PS)”: the caspase activation (% of PBS control) turned out to be 377.

The sequence “TGGCAAGCATCCT (sugars l1 d2 l1 d8 l1, PS)” returned a caspase activation (% of PBS control) of 178.

“TGGCAAGCATCCTGTA (sugars l5 d6 l3 d1 l1, PS)”: the caspase activation (% of PBS control) stood at 366.

The sequence “GTTACTGCCTTCTTAC (sugars ldldddddddddldll, PS)” displayed a caspase activation (% of PBS control) of 112.

Turning to “TGGCAAGCATCCTGTA (sugars lddldddddddldddl, PS)”, the caspase activation (% of PBS control) was determined as 173.

“TGGCAAGCATCCTGTA (sugars lldllddddddlddll, PS)”: the caspase activation (% of PBS control) was 475.

The sequence “GTTACTGCCTTCTTAC (sugars l2 d9 l2 d2 l1, PS)” returned a caspase activation (% of PBS control) of 199.

Turning to “GTTACTGCCTTCTTAC (sugars lldllddddddldddl, PS)”, the caspase activation (% of PBS control) was 260.

“TGGCAAGCATCCTGTA (sugars llldldddddddldll, PS)” came in with a caspase activation (% of PBS control) of 367.

“GCAAGCATCCTGT (sugars lddlddddddldl, PS)” gave a caspase activation (% of PBS control) of 109.

For the sequence “TGGCAAGCATCCTGTA (sugars l1 d1 l3 d8 l3, PS)”, the caspase activation (% of PBS control) is 448.

In the case of “GTTACTGCCTTCTTAC (sugars ldddlddddddlldll, PS)”, the caspase activation (% of PBS control) was found to be 165.

The sequence “GTTACTGCCTTCTTAC (sugars l5 d8 l1 d1 l1, PS)” displayed a caspase activation (% of PBS control) of 457.

With “GTTACTGCCTTCTTAC (sugars ldldldddddddddll, PS)”, the caspase activation (% of PBS control) was 151.

In turn, GGCAAGCATCCTG (sugars l3 d9 l1, PS) showed a caspase activation (% of PBS control) of 496.

“TGGCAAGCATCCTGTA (sugars lddlddddddddlddl, PS)” gave a caspase activation (% of PBS control) of 312.

Sequence CAAGCATCCTGTA (sugars l2 d9 l2, PS) gave a caspase activation (% of PBS control) of 189.

In turn, “GTTACTGCCTTCTTAC (sugars l1 d10 l3 d1 l1, PS)” showed a caspase activation (% of PBS control) of 261.

In the case of “TGGCAAGCATCCTGTA (sugars ldlldddddddlldll, PS)”, the caspase activation (% of PBS control) worked out at 381.

Consider TGGCAAGCATCCTGTA (sugars l5 d8 l3, PS), for which the caspase activation (% of PBS control) is 360.

On to “GTTACTGCCTTCTTAC (sugars ldldlddddddllldl, PS)”, for which the caspase activation (% of PBS control) was 354.

TACTGCCTTCTTA (sugars l4 d7 l2, PS) displayed a caspase activation (% of PBS control) of 594.

The sequence “GTTACTGCCTTCTTAC (sugars l1 d1 l1 d11 l2, PS)” yielded a caspase activation (% of PBS control) of 97.8.

“GTTACTGCCTTCTTAC (sugars l3 d9 l1 d1 l2, PS)”: the caspase activation (% of PBS control) turned out to be 188.

“GTTACTGCCTTCTTAC (sugars ldddldddddddldll, PS)” displayed a caspase activation (% of PBS control) of 135.

“GTTACTGCCTTCTTAC (sugars llldlddddddlddll, PS)” returned a caspase activation (% of PBS control) of 283.

In turn, “TGGCAAGCATCCTGTA (sugars l5 d6 l1 d2 l2, PS)” showed a caspase activation (% of PBS control) of 399.

With “TACTGCCTTCTTA (sugars lddlddddddldl, PS)”, the caspase activation (% of PBS control) amounted to 133.

“GTTACTGCCTTCT (sugars l1 d2 l1 d6 l3, PS)” showed a caspase activation (% of PBS control) of 134.

For the sequence “ACTGCCTTCTTAC (sugars l4 d6 l1 d1 l1, PS)”, the caspase activation (% of PBS control) is 393.

“GTTACTGCCTTCTTAC (sugars l2 d10 l1 d2 l1, PS)”: the caspase activation (% of PBS control) is 123.

Consider TGGCAAGCATCCTGTA (sugars l2 d12 l2, PS), for which the caspase activation (% of PBS control) is 389.

“TGGCAAGCATCCTGTA (sugars llldlddddddldlll, PS)” registered a caspase activation (% of PBS control) of 428.

In the case of GTTACTGCCTTCTTAC (sugars l3 d11 l2, PS), the caspase activation (% of PBS control) was determined as 136.

“TGGCAAGCATCCTGTA (sugars l3 d8 l2 d2 l1, PS)”: the caspase activation (% of PBS control) was found to be 221.

In turn, “TTACTGCCTTCTT (sugars l2 d8 l1 d1 l1, PS)” gave a caspase activation (% of PBS control) of 198.

“GTTACTGCCTTCTTAC (sugars l1 d11 l2 d1 l1, PS)” displayed a caspase activation (% of PBS control) of 137.

For “GTTACTGCCTTCTTAC (sugars llddlddddddllldl, PS)”, the caspase activation (% of PBS control) was found to be 373.

As to “GGCAAGCATCCTG (sugars l1 d1 l1 d7 l3, PS)”, the caspase activation (% of PBS control) stood at 721.

On to “GTTACTGCCTTCTTAC (sugars l3 d1 l1 d6 l5, PS)”, for which the caspase activation (% of PBS control) is 474.

As for “TGGCAAGCATCCTGTA (sugars l3 d8 l2 d1 l2, PS)”, the caspase activation (% of PBS control) stood at 414.

“GGCAAGCATCCTG (sugars l1 d2 l1 d8 l1, PS)” came in with a caspase activation (% of PBS control) of 205.

With “ACTGCCTTCTTAC (sugars lddlddddddldl, PS)”, the caspase activation (% of PBS control) turned out to be 118.

With “TGGCAAGCATCCTGTA (sugars lddlddddddddldll, PS)”, the caspase activation (% of PBS control) came out at 371.

CAAGCATCCTGTA (sugars l4 d7 l2, PS) yielded a caspase activation (% of PBS control) of 212.

“TGGCAAGCATCCTGTA (sugars ldldlddddddllddl, PS)” had a caspase activation (% of PBS control) of 219.

As to “GTTACTGCCTTCTTAC (sugars ldlllddddddlddll, PS)”, the caspase activation (% of PBS control) came to 425.

As for “TGGCAAGCATCCTGTA (sugars llddlddddddllddl, PS)”, the caspase activation (% of PBS control) came to 385.

As to TGGCAAGCATCCT (sugars l2 d8 l3, PS), the caspase activation (% of PBS control) is 315.

With “TGGCAAGCATCCTGTA (sugars llldlddddddllddl, PS)”, the caspase activation (% of PBS control) is 268.

“TGGCAAGCATCCTGTA (sugars l5 d7 l1 d1 l2, PS)” showed a caspase activation (% of PBS control) of 390.

Regarding GTTACTGCCTTCT (sugars l4 d7 l2, PS), the caspase activation (% of PBS control) was 196.

In turn, TGGCAAGCATCCTGTA (sugars l4 d11 l1, PS) had a caspase activation (% of PBS control) of 422.

The sequence “GTTACTGCCTTCTTAC (sugars l1 d2 l2 d8 l3, PS)” came in with a caspase activation (% of PBS control) of 248.

The sequence “TGGCAAGCATCCTGTA (sugars l3 d9 l1 d2 l1, PS)” gave a caspase activation (% of PBS control) of 210.

Sequence CAAGCATCCTGTA (sugars l2 d10 l1, PS) registered a caspase activation (% of PBS control) of 142.

“GTTACTGCCTTCTTAC (sugars llldlddddddldddl, PS)” showed a caspase activation (% of PBS control) of 272.

On to “GGCAAGCATCCTG (sugars ldldddddddldl, PS)”, for which the caspase activation (% of PBS control) was 344.

The sequence “TGGCAAGCATCCTGTA (sugars ldlldddddddllddl, PS)” returned a caspase activation (% of PBS control) of 360.

The sequence “TGGCAAGCATCCTGTA (sugars ldlllddddddllddl, PS)” showed a caspase activation (% of PBS control) of 495.

Turning to “TGGCAAGCATCCTGTA (sugars ldllddddddddlldl, PS)”, the caspase activation (% of PBS control) amounted to 412.

Take “TGGCAAGCATCCTGTA (sugars l1 d2 l1 d11 l1, PS)”: the caspase activation (% of PBS control) is 178.

For the sequence TGGCAAGCATCCT (sugars l4 d7 l2, PS), the caspase activation (% of PBS control) worked out at 447.

Take “GTTACTGCCTTCTTAC (sugars l1 d1 l2 d9 l3, PS)”: the caspase activation (% of PBS control) was found to be 141.

In turn, “TACTGCCTTCTTA (sugars l1 d1 l1 d7 l3, PS)” returned a caspase activation (% of PBS control) of 494.
